Measurements from paper PMC6274262, “Synthesis of Novel Symmetrical 1,4-Disubstituted 1,2,3-Bistriazole Derivatives via ‘Click Chemistry’ and Their Biological Evaluation” (Molecules, 2016).

What was measured:
E. coli ATCC 35218 = experiment: Agar-well diffusion antimicrobial screening; type: cell-based; settings: Escherichia coli, ATCC35218, 18 h, read-out: Inhibition Zone Ec
E. faecalis ATCC 29212 = experiment: Agar-well diffusion antimicrobial screening; type: cell-based; settings: Enterococcus faecalis, ATCC29212; 50 μL of DMSO stock (concentration in c1) per 5 mm well, 18 h at 35 °C; standard ampicillin 10 μg; read-out: Inhibition Zone Ef
S. aureus ATCC 25923 = experiment: Agar-well diffusion antimicrobial screening; type: cell-based; settings: Staphylococcus aureus, ATCC25923; 50 μL of DMSO stock (concentration in c1) per 5 mm well, 18 h at 35 °C; standard ampicillin 10 μg; read-out: Inhibition Zone Sa
B. cereus 709 Roma = experiment: Agar-well diffusion antimicrobial screening; type: cell-based; settings: Bacillus cereus, 50 μL of DMSO stock (concentration in c1) per 5 mm well, 18 h at 35 °C, standard ampicillin 10 μg, read-out: Inhibition Zone Bc
P. aeruginosa ATCC 10145 = experiment: Agar-well diffusion antimicrobial screening; type: cell-based; settings: Pseudomonas aeruginosa, ATCC10145; 50 μL of DMSO stock (concentration in c1) per 5 mm well, 18 h at 35 °C; standard ampicillin 10 μg; read-out: Inhibition Zone Pa
[1] = tested on: Y. pseudotuberculosis ATCC 911; experiment: microbe, parasite or virus in culture; type: cell-based; settings: Yersinia pseudotuberculosis, ATCC911, 18 h, read-out: Inhibition Zone Yp
C. albicans ATCC 60193 = experiment: Agar-well diffusion antimicrobial screening; type: cell-based, Candida albicans; settings: Candida albicans, ATCC60193, 18 h, read-out: Inhibition Zone Ca
S. cerevisiae RSKK 251 = experiment: Agar-well diffusion antimicrobial screening; type: cell-based, Saccharomyces cerevisiae
M. smegmatis ATCC607 = experiment: Agar-well diffusion antimicrobial screening; type: cell-based, Mycobacterium smegmatis; settings: Mycolicibacterium smegmatis, ATCC607, 72 h; 50 μL of DMSO stock (concentration in c1) per 5 mm well, BHI agar, 3 days at 35 °C; standard streptomycin 10 µg; read-out: Inhibition Zone Ms
[2] = biological target: T1, Electric eel acetyl-cholinesterase enzyme (AchE, Type-VI-S; EC 3.1.1.7) (Electrophorus electricus, UniProt O42275); experiment: biochemical; settings: mean ± S.D. of three independent experiments; Tris-HCl pH 8.00, 412 nm
T1 construct: purchased Sigma-Aldrich Type-VI-S
T1 sequence (O42275 24-633): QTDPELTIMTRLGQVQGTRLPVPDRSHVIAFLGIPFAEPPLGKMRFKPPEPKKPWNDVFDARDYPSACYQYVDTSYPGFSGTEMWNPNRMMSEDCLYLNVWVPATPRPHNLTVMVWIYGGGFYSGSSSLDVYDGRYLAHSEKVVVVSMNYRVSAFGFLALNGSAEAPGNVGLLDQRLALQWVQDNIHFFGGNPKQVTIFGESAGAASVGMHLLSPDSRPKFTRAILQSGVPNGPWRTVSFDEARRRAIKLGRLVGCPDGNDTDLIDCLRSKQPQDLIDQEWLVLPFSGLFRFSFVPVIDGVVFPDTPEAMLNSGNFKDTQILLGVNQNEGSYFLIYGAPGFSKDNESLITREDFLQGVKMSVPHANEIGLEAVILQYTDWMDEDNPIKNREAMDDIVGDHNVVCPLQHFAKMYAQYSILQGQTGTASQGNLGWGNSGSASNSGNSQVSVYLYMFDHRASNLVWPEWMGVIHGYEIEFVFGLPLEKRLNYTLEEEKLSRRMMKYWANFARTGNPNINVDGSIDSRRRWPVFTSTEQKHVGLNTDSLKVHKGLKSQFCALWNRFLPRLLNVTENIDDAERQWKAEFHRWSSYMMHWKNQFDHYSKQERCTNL
Method: Firstly, all of the compounds stock solution in DMF (1 × 10^−3 M) were prepared and then five different concentrations were prepared from stock solution in buffer (Tris-HCI pH 8.00) for experiments. Briefly 50 µL of 50 mM Tris-HCl buffer (pH 8.00), 125 µL of 3 mM DTNB (in buffer), 25 µL of 0.2 U/mL AChE and 25 µL of sample dissolved in buffer and incubated for 15 min. at 25 °C. Fifteen minutes later, 25 µL of 15 mM acetyl thiocholine iodide were added and incubated 5 min. at room temperature. The reaction was initiated by the addition of acetylcholine iodide. The hydrolysis of this substrate was monitored by the formation of the yellow 5-thio-2-nitrobenzoate anion as a result of the reaction DTNB with thiocholine, catalized by enzyme at a wave length of 412 nm using a 96-well microplate reader (Multiskan Go UV-spectrophotometer, Thermo Fisher Scientific Oy Ratastie 2, Vantaa, Finland).
Inhibition of AChE was calculated by the comparison of reaction rates of the samples relative to the blank sample (DMF in phosphate buffer pH = 8) using the Equation (1) where Acontrol is the activity of enzyme without test sample and Asample is the activity of enzyme with test sample: (1) Scavenging effects (%)=[(Acontrol−Asample)/Acontrol]×100
The experiments were carried out in triplicate and IC50 values were examined.

[3] = DPPH radical scavenging assay; settings: 0.1 mM methanolic DPPH, 30 min in the dark, 517 nm; mean ± S.D., triplicate
Method: Some 1,2,3-triazole compounds are known to act either as inhibitors of free radical production or as radical scavengers. Therefore, the potential antioxidant property of the new 1,2,3-trizole compounds was evaluated by determining their DPPH and SOD radical scavenging ability. DPPH is a stable free radical that accepts an electron or hydrogen radical to become a stable species. Due to its odd electron, DPPH gives a strong absorption band at 517 nm. Antioxidants are suitable reducing agents and neutralize the free radicals by pairing the DPPH odd electron with a hydrogen atom, and the DPPH solution turns yellow, observed as the decrease in absorbance at 517 nm.
The compounds were tested for in vitro antioxidant activities by the 2,2-diphenyl-1-picrylhydrazyl (DPPH) free radical scavenging assay method. The total volume of the assay mixtures containing methanolic DPPH solution (0.1 mM) and different concentrations of samples was 1 mL. After incubation in the dark at room temperature for 30 min., absorbance of the samples (Asample) was measured at 517 nm. Assay mixture without compound was used as control (control absorbance, Acontrol). All experiments were carried out in triplicate and results were expressed as the mean ±standard deviation (S.D.). Butylatedhydroxyanisole (BHA) were used as the reference compound. Free radical scavenging effect was calculated using Equation (1).

[4] = Superoxide radical scavenging assay (NBT photo reduction method); settings: pH 7.8, 30 °C, 10 min, 560 nm, mean ± S.D., triplicate
Method: Superoxide scavenging activity of the compounds and reference were tested in a non-enzymatic superoxide radical (O2^−•) generation assay using a modified spectrophotometrical nitro blue tetrazolium (NBT) photo reduction method. The total volume of the assay mixtures containing riboflavin (2 μM), methionine (13 mM), NBT ([…]), EDTA (0.1 mM), and the test samples (50 mM phosphate buffer, pH = 7.8) was 1 mL. After illuminating with a fluorescent lamp at 30 °C for 10 min., the absorbance of the samples (Asample) was measured at 560 nm. Assay mixture without the compound was used as control (control absorbance, Acontrol). All experiments were carried out in triplicate and results were expressed as the mean ± standard deviation (S.D.). Free O2^−• radical scavenging effect was calculated using Equation (1).

## CC1(C)S[C@@H]2[C@H](NC(=O)[C@H](N)c3ccccc3)C(=O)N2[C@H]1C(=O)O [Amp, Ampicillin]
E. coli ATCC 35218
  zone of inhibition at 10 µg/disc: 10 mm
E. faecalis ATCC 29212
  zone of inhibition at 10 µg/disc: 35 mm
S. aureus ATCC 25923
  zone of inhibition at 10 µg/disc: 10 mm
B. cereus 709 Roma
  zone of inhibition at 10 µg/disc: 15 mm
P. aeruginosa ATCC 10145
  zone of inhibition at 10 µg/disc: 18 mm
[1]
  zone of inhibition at 10 µg/disc: 10 mm

## OC(Cn1cncn1)(Cn1cncn1)c1ccc(F)cc1F [Flu., Fluconazole, reference compound]
C. albicans ATCC 60193
  zone of inhibition at 5 µg/disc: 25 mm
S. cerevisiae RSKK 251; Saccharomyces cerevisiae, RSKK251, 50 μL of DMSO stock (concentration in c1) per 5 mm well, 18 h at 35 °C, standard fluconazole 5 μg, read-out: Inhibition Zone Sc
  zone of inhibition at 5 µg/disc: 25 mm

## [H]/N=C(/N)N[C@H]1[C@H](O)[C@@H](O)[C@H](O[C@@H]2O[C@@H](C)[C@](O)(C=O)[C@H]2O[C@@H]2O[C@@H](CO)[C@H](O)[C@@H](O)[C@@H]2NC)[C@@H](N/C(N)=N\[H])[C@@H]1O [Strep, Streptomycin]
M. smegmatis ATCC607
  zone of inhibition at 10 µg/disc: 35 mm

## COc1cc(C(C)=O)ccc1OCc1cn(CCCCCCn2cc(COc3ccc(C(C)=O)cc3OC)nn2)nn1 [Compound 3d, 1-(4-((1-(6-(4-((4-Acetyl-2-methoxyphenoxy)methyl)-1H-1,2,3-triazol-1-yl)hexyl)-1H-1,2,3-triazol-4-yl)-methoxy)-2-methoxyphenyl)ethan-1-onen]
[2]
  IC50: 75.7 µM
S. cerevisiae RSKK 251
  Inhibition Zone Sc: -
[3]
  DPPH IC50: 149.21 (±0.06) µg/mL
[4]
  SOD IC50: 128.24 (±0.10) µg/mL
